molecular target: T1, estrogen receptor (Homo sapiens, UniProt P03372); assay: AP assay (alkaline phosphatase activity in ECC-1 cells), agonist mode (absence of E2) and antagonist mode (presence of 500 pM E2); format: cell-based; conditions: 3 days, AP activity normalized to 500 pM E2 alone, agonist and antagonist mode combined
T1 construct: endogenous in cells; host or cells: ECC-1 cells
T1 sequence (P03372 1-595): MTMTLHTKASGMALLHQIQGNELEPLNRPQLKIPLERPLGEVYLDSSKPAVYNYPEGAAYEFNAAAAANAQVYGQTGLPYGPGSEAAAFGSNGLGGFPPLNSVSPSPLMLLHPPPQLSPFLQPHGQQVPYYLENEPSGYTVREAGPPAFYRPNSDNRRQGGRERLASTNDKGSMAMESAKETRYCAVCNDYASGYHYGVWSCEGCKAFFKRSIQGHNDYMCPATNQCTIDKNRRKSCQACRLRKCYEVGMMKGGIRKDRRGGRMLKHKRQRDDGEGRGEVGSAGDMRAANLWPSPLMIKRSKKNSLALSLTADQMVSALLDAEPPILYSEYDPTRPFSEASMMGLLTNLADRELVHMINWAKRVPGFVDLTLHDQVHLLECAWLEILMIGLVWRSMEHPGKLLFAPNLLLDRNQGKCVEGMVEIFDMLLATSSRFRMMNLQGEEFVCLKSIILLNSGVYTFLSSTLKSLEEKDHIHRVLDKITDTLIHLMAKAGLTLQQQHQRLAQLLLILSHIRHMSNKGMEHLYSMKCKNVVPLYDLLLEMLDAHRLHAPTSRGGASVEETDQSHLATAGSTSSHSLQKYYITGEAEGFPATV
Method: ECC-1 cells were trypsinized and resuspended in hormone-depleted media and plated at a density of 15 k cells per well into a 96-well plate for at least 4 hours. Cells were treated with test compounds in the absence of E2 (for agonist mode) or in the presence of 500 pM E2 (for antagonist mode) for 3 days and plates were subsequently frozen at −80 °C. Thawed plates were incubated with a chromogenic substrate of AP, p-nitrophenyl phosphate (Thermo Fisher Scientific), for 40 minutes at 42 °C, and absorbances were read at 405 nm. AP activity was normalized to the activity of 500 pM E2 alone.
The compound numbers correspond to the compound numbers of Table 1 and 2. Compounds having an activity designated as “+” provided estrogen receptor agonism having (i) at least 80% increase in the E2-normalized signal in the AP assay (agonist mode) and (ii) no more than 80% reduction in the E2-normalized signal in the AP assay (antagonist mode). Compounds having an activity designated as “++” provided estrogen receptor antagonism having (i) between 10% and 80% increase in the E2-normalized signal in the AP assay (agonist mode) and (ii) between 10% and 80% reduction in the E2-normalized signal in the AP assay (antagonist mode).

**Q.** `C[C@@H]1Cc2c([nH]c3ccccc23)[C@@H](c2n[nH]c3cc(CN4CC(CF)C4)ccc23)N1CC(C)(C)F` [Compound I-10, (1S,3R)-1-[6-[[3-(fluoromethyl)azetidin-1-yl]methyl]-1H-indazol-3-yl]-2-(2-fluoro-2-methyl-propyl)-3-methyl-1,3,4,9-tetrahydropyrido[3,4-b]indole] was tested. Which “Activity (estrogen receptor modulation, e.g., agonism and antagonism)” value (“Activity” below) did it give?
**A.** The value was “+++ (estrogen receptor antagonism (i) with pIC50 greater than 7.5 and at least a 10% reduction in the E2-normalized signal in the AP assay (antagonist mode); and (ii) no more than 10% increase in E2-normalized signal in the AP assay (agonist mode))”.

**Q.** For `CC1CN(Cc2ccc3c([C@@H]4c5[nH]c6ccccc6c5C[C@@H](C)N4CC(C)(C)F)n[nH]c3c2)C1` [Compound I-11, (1S,3R)-2-(2-fluoro-2-methyl-propyl)-3-methyl-1-[6-[(3-methylazetidin-1-yl)methyl]-1H-indazol-3-yl]-1,3,4,9-tetrahydropyrido[3,4-b]indole], which “Activity” value is on record?
**A.** The value was “++ (estrogen receptor antagonism having (i) between 10% and 80% increase in the E2-normalized signal in the AP assay (agonist mode) and (ii) between 10% and 80% reduction in the E2-normalized signal in the AP assay (antagonist mode))”.

**Q.** `C[C@@H]1Cc2c([nH]c3ccccc23)[C@@H](c2n[nH]c3cc(CN(C)CCCF)ccc23)N1CC(C)(C)F` [Compound I-12, 3-fluoro-N-[[3-[(1S,3R)-2-(2-fluoro-2-methyl-propyl)-3-methyl-1,3,4,9-tetrahydropyrido[3,4-b]indol-1-yl]-1H-indazol-6-yl]methyl]-N-methyl-propan-1-amine] was tested. Which “Activity” value did it give?
**A.** Its value is “+ (estrogen receptor agonism having (i) at least 80% increase in the E2-normalized signal in the AP assay (agonist mode) and (ii) no more than 80% reduction in the E2-normalized signal in the AP assay (antagonist mode))”.

**Q.** For `CCCN(C)Cc1ccc2c([C@@H]3c4[nH]c5ccccc5c4C[C@@H](C)N3CC(C)(C)F)n[nH]c2c1` [Compound I-13, N-[[3-[(1S,3R)-2-(2-fluoro-2-methyl-propyl)-3-methyl-1,3,4,9-tetrahydropyrido[3,4-b]indol-1-yl]-1H-indazol-6-yl]methyl]-N-methyl-propan-1-amine], which “Activity” value is on record?
**A.** Its value is “+ (estrogen receptor agonism having (i) at least 80% increase in the E2-normalized signal in the AP assay (agonist mode) and (ii) no more than 80% reduction in the E2-normalized signal in the AP assay (antagonist mode))”.

**Q.** `C[C@@H]1Cc2c([nH]c3ccccc23)[C@@H](c2n[nH]c3cc(CNCCCF)ccc23)N1CC(C)(C)F` [Compound I-14, 3-fluoro-N-[[3-[(1S,3R)-2-(2-fluoro-2-methyl-propyl)-3-methyl-1,3,4,9-tetrahydropyrido[3,4-b]indol-1-yl]-1H-indazol-6-yl]methyl]propan-1-amine] was tested. Which “Activity” value did it give?
**A.** The value was “+ (estrogen receptor agonism having (i) at least 80% increase in the E2-normalized signal in the AP assay (agonist mode) and (ii) no more than 80% reduction in the E2-normalized signal in the AP assay (antagonist mode))”.

**Q.** For `C[C@@H]1Cc2c([nH]c3ccccc23)[C@@H](c2c[nH]c3cc(CN4CC(CF)C4)ccc23)N1CC(F)(F)CO` [Compound I-15, 2,2-difluoro-3-[(1R,3R)-1-[6-[[3-(fluoromethyl)azetidin-1-yl]methyl]-1H-indol-3-yl]-3-methyl-1,3,4,9-tetrahydropyrido[3,4-b]indol-2-yl]propan-1-ol], which “Activity” value is on record?
**A.** The value was “++ (estrogen receptor antagonism having (i) between 10% and 80% increase in the E2-normalized signal in the AP assay (agonist mode) and (ii) between 10% and 80% reduction in the E2-normalized signal in the AP assay (antagonist mode))”.

**Q.** For `C[C@@H]1Cc2c([nH]c3ccccc23)[C@@H](c2n[nH]c3cc(CN4CC(CF)C4)ccc23)N1CC(F)(F)CO` [Compound I-16, 2,2-difluoro-3-[(1S,3R)-1-[6-[[3-(fluoromethyl)azetidin-1-yl]methyl]-1H-indazol-3-yl]-3-methyl-1,3,4,9-tetrahydropyrido[3,4-b]indol-2-yl]propan-1-ol], which “Activity” value is on record?
**A.** The value was “++ (estrogen receptor antagonism having (i) between 10% and 80% increase in the E2-normalized signal in the AP assay (agonist mode) and (ii) between 10% and 80% reduction in the E2-normalized signal in the AP assay (antagonist mode))”.

**Q.** Which “Activity” value does the source give for `CC1CN(Cc2ccc3c([C@@H]4c5[nH]c6ccccc6c5C[C@@H](C)N4CC(F)(F)CO)n[nH]c3c2)C1` [Compound I-17, 2,2-difluoro-3-((1S,3R)-3-methyl-1-(6-((3-methylazetidin-1-yl)methyl)-1H-indazol-3-yl)-1,3,4,9-tetrahydro-2H-pyrido[3,4-b]indol-2-yl)propan-1-ol] here?
**A.** The value was “+++ (estrogen receptor antagonism (i) with pIC50 greater than 7.5 and at least a 10% reduction in the E2-normalized signal in the AP assay (antagonist mode); and (ii) no more than 10% increase in E2-normalized signal in the AP assay (agonist mode))”.

**Q.** With `C[C@@H]1Cc2c([nH]c3ccccc23)[C@@H](c2n[nH]c3cc(CN4CC[C@@H](CF)C4)ccc23)N1CC(C)(C)F` [Compound I-24, (1S,3R)-2-(2-fluoro-2-methyl-propyl)-1-[6-[[(3R)-3-(fluoromethyl)pyrrolidin-1-yl]methyl]-1H-indazol-3-yl]-3-methyl-1,3,4,9-tetrahydropyrido[3,4-b]indole] as the compound, how does the “Activity” value read?
**A.** Its value is “+ (estrogen receptor agonism having (i) at least 80% increase in the E2-normalized signal in the AP assay (agonist mode) and (ii) no more than 80% reduction in the E2-normalized signal in the AP assay (antagonist mode))”.

**Q.** How did the “Activity” value turn out when `C[C@@H]1Cc2c([nH]c3ccccc23)[C@@H](c2c[nH]c3c(F)c(CN4CC(CF)C4)ccc23)N1CC(C)(C)F` [Compound I-29, (1R,3R)-1-[7-fluoro-6-[[3-(fluoromethyl)azetidin-1-yl]methyl]-1H-indol-3-yl]-2-(2-fluoro-2-methyl-propyl)-3-methyl-1,3,4,9-tetrahydropyrido[3,4-b]indole] was run?
**A.** The value was “++ (estrogen receptor antagonism having (i) between 10% and 80% increase in the E2-normalized signal in the AP assay (agonist mode) and (ii) between 10% and 80% reduction in the E2-normalized signal in the AP assay (antagonist mode))”.

**Q.** With `C[C@@H]1Cc2c([nH]c3ccccc23)[C@@H](c2c[nH]c3cc(CC4CN(C)C4)ccc23)N1CC(C)(C)F` [Compound I-30, (1R,3R)-2-(2-fluoro-2-methyl-propyl)-3-methyl-1-[6-[(1-methylazetidin-3-yl)methyl]-1H-indol-3-yl]-1,3,4,9-tetrahydropyrido[3,4-b]indole] as the compound, how does the “Activity” value read?
**A.** The value was “+ (estrogen receptor agonism having (i) at least 80% increase in the E2-normalized signal in the AP assay (agonist mode) and (ii) no more than 80% reduction in the E2-normalized signal in the AP assay (antagonist mode))”.

**Q.** Which “Activity” value does the source give for `C[C@@H]1Cc2c([nH]c3ccccc23)[C@@H](c2n[nH]c3cc(CN4CC5(CC(O)C5)C4)ccc23)N1CC(C)(C)F` [Compound I-31, 2-[[3-[(1S,3R)-2-(2-fluoro-2-methyl-propyl)-3-methyl-1,3,4,9-tetrahydropyrido[3,4-b]indol-1-yl]-1H-indazol-6-yl]methyl]-2-azaspiro[3.3]heptan-6-ol] here?
**A.** Its value is “+ (estrogen receptor agonism having (i) at least 80% increase in the E2-normalized signal in the AP assay (agonist mode) and (ii) no more than 80% reduction in the E2-normalized signal in the AP assay (antagonist mode))”.

**Q.** How did the “Activity” value turn out when `C[C@@H]1Cc2c([nH]c3ccccc23)[C@@H](c2n[nH]c3cc(CN4CC(C#N)C4)ccc23)N1CC(C)(C)F` [Compound I-32, 1-[[3-[(1S,3R)-2-(2-fluoro-2-methyl-propyl)-3-methyl-1,3,4,9-tetrahydropyrido[3,4-b]indol-1-yl]-1H-indazol-6-yl]methyl]azetidine-3-carbonitrile] was run?
**A.** The value was “+ (estrogen receptor agonism having (i) at least 80% increase in the E2-normalized signal in the AP assay (agonist mode) and (ii) no more than 80% reduction in the E2-normalized signal in the AP assay (antagonist mode))”.

**Q.** How did the “Activity” value turn out when `C[C@@H]1Cc2c([nH]c3ccccc23)[C@@H](c2n[nH]c3cc(CN4CC5(CC(F)C5)C4)ccc23)N1CC(C)(C)F` [Compound I-33, (1S,3R)-1-[6-[(6-fluoro-2-azaspiro[3.3]heptan-2-yl)methyl]-1H-indazol-3-yl]-2-(2-fluoro-2-methyl-propyl)-3-methyl-1,3,4,9-tetrahydropyrido[3,4-b]indole] was run?
**A.** Its value is “+++ (estrogen receptor antagonism (i) with pIC50 greater than 7.5 and at least a 10% reduction in the E2-normalized signal in the AP assay (antagonist mode); and (ii) no more than 10% increase in E2-normalized signal in the AP assay (agonist mode))”.
